Here are results for two compounds from patent US11834454B2, “Alkynylphenylbenzamide compounds and applications thereof” (SHENZHEN NEWDEL BIOTECH CO., LTD., priority 2021, dated 2023).

The conditions of data set [1]: SD rats, cited from earlier work.
In data set [2] the target is Bcr-Abl (Homo sapiens, UniProt P00519). Kind of data set: Kinase selectivity, Z'-LYTE.
Method: (§1) Enzymatic reaction: In a 384-well plate, added 5 μL of enzyme-substrate system [50 mM 4-hydroxyethylpiperazineethanesulfonic acid (HEPES) pH 7.5, 0.01% BRIJ-35, 10 mM of magnesium chloride (MgCl2), 1 mM of ethylene glycol bis(2-aminoethyl ether)tetraacetic acid (EGTA), 2 μM of Tyr 01 peptide substrate], transferred 5 nL of compound (concentration gradient) using an Echo520 Ultra-Micro Liquid Pipetting System. […] Shaked and mixed, then centrifuged, and reacted at 30° C. in the dark for 1.5 hours.
Data set [3] has as its target SRC (Homo sapiens, UniProt P12931). The experiment in a line: Kinase selectivity, Z'-LYTE.
Method: as §1
Data set [4] addresses RET (Homo sapiens, UniProt P07949). Kind of data set: Kinase selectivity, Z'-LYTE.
Method: as §1
Data set [5] deals with VEGFR2 (Homo sapiens, UniProt P35968). The experiment in a line: Kinase selectivity, Z'-LYTE.
Method: as §1
Data set [6] deals with Kit (Homo sapiens, UniProt P10721). Kind of data set: Kinase selectivity, Z'-LYTE.
Chain of Kit (P10721 26-976, species assumed): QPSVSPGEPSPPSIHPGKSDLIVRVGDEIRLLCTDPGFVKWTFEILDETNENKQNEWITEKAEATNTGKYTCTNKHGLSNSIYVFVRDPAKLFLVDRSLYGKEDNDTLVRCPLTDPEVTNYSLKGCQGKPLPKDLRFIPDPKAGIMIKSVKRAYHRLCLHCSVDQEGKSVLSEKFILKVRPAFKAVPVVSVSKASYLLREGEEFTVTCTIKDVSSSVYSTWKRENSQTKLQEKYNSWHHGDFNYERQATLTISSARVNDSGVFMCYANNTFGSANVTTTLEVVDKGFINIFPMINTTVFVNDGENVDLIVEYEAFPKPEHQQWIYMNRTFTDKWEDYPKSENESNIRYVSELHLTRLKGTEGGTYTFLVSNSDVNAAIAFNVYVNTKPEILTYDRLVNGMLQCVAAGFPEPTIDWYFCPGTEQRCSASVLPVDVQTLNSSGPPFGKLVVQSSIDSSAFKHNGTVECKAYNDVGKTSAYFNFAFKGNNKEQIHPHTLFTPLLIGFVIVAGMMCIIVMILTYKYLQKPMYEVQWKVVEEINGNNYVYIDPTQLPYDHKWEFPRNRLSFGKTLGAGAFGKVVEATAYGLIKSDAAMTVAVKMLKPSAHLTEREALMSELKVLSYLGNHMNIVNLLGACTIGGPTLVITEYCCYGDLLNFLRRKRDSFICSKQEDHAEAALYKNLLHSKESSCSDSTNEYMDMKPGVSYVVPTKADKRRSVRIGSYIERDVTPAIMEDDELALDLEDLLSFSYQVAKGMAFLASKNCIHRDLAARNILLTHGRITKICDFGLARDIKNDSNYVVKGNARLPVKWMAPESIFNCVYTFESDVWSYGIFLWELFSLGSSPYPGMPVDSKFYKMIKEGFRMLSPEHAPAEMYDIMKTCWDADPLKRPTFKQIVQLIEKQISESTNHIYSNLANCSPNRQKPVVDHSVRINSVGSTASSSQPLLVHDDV
Method: as §1
The target of data set [7] is PDGFRA (Homo sapiens, UniProt P16234). The experiment in a line: Kinase selectivity, Z'-LYTE.
Chain of PDGFRA (P16234 24-1089, species assumed): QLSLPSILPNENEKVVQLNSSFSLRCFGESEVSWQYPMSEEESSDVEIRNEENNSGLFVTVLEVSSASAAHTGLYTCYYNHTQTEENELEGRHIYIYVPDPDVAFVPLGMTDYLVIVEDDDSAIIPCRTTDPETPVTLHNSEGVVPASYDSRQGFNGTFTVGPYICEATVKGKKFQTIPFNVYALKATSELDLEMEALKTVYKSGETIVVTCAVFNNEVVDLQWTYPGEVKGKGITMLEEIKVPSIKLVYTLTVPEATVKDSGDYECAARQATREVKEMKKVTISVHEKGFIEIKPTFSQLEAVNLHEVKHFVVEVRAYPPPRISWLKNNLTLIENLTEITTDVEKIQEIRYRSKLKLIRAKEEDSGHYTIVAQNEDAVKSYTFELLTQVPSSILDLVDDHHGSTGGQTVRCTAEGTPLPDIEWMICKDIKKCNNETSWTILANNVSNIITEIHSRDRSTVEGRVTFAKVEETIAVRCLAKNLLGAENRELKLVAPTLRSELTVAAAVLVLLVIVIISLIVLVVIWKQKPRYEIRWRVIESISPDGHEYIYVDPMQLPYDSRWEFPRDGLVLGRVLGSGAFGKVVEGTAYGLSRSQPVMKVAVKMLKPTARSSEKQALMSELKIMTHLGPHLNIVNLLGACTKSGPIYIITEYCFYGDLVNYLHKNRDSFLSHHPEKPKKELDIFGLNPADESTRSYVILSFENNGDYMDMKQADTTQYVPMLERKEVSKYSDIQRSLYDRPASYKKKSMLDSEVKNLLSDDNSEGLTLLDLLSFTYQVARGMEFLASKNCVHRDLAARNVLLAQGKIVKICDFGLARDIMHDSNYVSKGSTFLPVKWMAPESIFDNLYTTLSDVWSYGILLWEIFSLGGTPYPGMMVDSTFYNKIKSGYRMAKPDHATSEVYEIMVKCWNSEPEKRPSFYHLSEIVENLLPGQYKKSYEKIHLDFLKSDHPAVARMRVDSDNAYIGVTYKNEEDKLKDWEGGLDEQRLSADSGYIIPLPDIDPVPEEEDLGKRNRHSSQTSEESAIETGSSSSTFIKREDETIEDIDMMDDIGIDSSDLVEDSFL
Method: as §1
The target of data set [8] is PDGFRB (Homo sapiens, UniProt P09619). Kind of data set: Kinase selectivity, Z'-LYTE.
Chain of PDGFRB (P09619 33-1106, species assumed): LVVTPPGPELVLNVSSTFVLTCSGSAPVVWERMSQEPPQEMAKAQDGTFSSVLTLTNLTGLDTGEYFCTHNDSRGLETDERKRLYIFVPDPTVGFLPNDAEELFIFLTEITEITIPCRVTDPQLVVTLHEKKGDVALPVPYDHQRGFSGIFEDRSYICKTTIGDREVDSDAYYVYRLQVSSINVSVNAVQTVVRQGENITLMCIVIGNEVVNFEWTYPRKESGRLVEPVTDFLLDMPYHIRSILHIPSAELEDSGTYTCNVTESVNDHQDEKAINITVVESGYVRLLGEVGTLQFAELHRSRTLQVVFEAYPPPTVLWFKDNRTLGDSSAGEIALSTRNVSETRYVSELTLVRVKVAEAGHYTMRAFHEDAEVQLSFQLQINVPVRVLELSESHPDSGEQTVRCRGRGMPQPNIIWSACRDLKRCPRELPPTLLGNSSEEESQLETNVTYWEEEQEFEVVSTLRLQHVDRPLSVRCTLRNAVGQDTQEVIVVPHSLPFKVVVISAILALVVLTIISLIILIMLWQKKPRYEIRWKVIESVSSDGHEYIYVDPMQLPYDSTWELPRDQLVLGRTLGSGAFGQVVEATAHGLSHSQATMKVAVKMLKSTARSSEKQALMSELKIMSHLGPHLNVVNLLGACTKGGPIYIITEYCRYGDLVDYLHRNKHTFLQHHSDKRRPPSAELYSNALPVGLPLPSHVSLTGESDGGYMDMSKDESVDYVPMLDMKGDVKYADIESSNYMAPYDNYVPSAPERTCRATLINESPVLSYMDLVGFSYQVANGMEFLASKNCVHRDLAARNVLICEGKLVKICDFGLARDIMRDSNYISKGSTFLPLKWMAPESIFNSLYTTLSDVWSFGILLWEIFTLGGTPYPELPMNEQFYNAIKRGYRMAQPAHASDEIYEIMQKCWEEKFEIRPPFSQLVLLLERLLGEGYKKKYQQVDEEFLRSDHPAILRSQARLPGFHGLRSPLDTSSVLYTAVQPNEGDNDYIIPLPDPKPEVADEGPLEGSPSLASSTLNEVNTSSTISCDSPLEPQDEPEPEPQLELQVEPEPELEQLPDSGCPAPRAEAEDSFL
Method: as §1

The structures appear in SMILES notation. Read-outs that look alike come from different tables or passages of the source.

Chain of Bcr-Abl (P00519 242-493 limits assumed): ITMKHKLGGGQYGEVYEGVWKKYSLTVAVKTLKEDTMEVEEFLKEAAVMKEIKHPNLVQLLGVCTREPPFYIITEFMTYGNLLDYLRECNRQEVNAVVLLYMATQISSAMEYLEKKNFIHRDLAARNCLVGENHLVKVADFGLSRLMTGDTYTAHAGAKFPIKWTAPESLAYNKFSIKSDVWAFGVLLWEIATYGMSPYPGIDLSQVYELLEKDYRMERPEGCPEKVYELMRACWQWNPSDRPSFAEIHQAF
Chain of SRC (P12931 whole entry, species assumed): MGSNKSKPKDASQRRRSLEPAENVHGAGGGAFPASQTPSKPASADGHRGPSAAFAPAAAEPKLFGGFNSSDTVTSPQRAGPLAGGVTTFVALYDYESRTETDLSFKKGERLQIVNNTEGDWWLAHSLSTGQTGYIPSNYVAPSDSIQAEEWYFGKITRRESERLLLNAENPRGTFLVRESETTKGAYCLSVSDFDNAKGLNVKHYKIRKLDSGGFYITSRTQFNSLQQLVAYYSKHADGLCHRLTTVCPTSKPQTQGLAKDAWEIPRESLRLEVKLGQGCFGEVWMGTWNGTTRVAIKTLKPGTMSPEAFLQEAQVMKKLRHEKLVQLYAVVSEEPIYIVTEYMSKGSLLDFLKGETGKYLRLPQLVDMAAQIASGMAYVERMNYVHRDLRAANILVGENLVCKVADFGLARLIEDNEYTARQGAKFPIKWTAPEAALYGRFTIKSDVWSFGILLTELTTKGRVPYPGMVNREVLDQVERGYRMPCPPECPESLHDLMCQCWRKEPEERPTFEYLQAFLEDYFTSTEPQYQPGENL
Chain of RET (P07949 29-1114, species assumed): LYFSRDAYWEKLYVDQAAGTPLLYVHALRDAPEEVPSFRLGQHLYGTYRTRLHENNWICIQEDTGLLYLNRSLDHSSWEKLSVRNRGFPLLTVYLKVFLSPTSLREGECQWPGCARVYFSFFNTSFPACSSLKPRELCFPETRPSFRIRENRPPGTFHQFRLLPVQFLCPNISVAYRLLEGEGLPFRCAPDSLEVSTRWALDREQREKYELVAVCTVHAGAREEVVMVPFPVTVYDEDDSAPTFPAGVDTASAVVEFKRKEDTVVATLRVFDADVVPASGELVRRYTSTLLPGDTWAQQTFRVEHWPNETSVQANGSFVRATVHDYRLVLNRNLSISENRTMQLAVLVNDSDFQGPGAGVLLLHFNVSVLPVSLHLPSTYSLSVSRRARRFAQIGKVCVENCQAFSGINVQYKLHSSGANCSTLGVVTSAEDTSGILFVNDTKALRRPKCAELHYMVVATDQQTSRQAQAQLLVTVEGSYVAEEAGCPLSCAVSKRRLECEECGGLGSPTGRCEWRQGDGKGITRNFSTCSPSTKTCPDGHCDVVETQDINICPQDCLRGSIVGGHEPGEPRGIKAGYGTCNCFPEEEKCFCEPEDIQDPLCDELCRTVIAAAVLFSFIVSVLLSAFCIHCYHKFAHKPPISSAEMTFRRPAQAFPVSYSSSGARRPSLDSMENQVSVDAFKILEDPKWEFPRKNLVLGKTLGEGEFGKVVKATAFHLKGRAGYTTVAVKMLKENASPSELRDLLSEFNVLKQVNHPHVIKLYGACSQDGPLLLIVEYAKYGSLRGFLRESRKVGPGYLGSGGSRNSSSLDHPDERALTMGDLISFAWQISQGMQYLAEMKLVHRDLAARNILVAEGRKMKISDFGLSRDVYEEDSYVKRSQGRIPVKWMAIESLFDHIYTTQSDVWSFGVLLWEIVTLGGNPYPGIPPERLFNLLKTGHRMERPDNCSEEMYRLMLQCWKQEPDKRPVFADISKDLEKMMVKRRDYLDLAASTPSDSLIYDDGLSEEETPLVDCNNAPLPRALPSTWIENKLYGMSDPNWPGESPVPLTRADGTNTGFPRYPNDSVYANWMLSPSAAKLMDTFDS

The AUC(0-t) is the area under the concentration-time curve up to a stated or last time point. One may read the Cmax as the maximum level reached in the sampled fluid or tissue. One may read the Tmax as the time at which the peak concentration occurs. The half-life is the time in which the quantity being followed falls by half. `Cc1c(C#Cc2cnc3cnc(-c4ccc(N)cc4)cn23)cccc1C(=O)Nc1cc(CN2CCN(C)CC2)cc(C(C)C)c1` [Compound 9o]: in data set [1] (intravenous injection, 5 mg/kg), the “AUC (0-∞)” value is 810.45 ng·h/mL, the exposure AUC(0-t) was 804.65 ng·h/mL, the Clearance rate is 21.0085 mL/min/kg and the Cmax is listed as 1968.37 ng/mL. Besides, in data set [1] (intravenous injection, 5 mg/kg), the time to peak (Tmax) is on record as 0.083 h and the half-life is reported as 2.03 h. Besides, the BA in data set [1] (oral 25 mg/kg vs intravenous 5 mg/kg) is reported as 10.72%. Besides, in data set [1] (oral, 25 mg/kg), the “AUC (0-∞)” value is 445.18 ng·h/mL, the area under the curve AUC(0-t) was 431.49 ng·h/mL, the Cmax is 63.3 ng/mL and the Tmax was 2 h. Also, in data set [1] (oral, 25 mg/kg), the half-life is 4.77 h.

What is called IC50 is the concentration at which inhibition is half-maximal. Low values mean greater potency in that assay, high ones weaker potency in that assay. Take `Cc1ccc(C(=O)Nc2cc(Cl)cc(C(F)(F)F)c2)cc1C#Cc1cnc2ccc(N3CCC(O)CC3)nn12` [XS4-128, N-(3-Chloro-5-(trifluoromethyl)phenyl)-3-((6-(4-hydroxypiperidin-1-yl)imidazo[1,2-B]pyridazine-3-yl)ethynyl)-4-methylbenzamide, reference compound]: the IC50 in data set [2] was determined as 129 nM; in data set [3], 20.3 nM; in data set [4], 10.7 nM; in data set [5] it was 18.9 nM; in data set [6], 93.5 nM; in data set [7] it was 19.9 nM. This compound also yielded an IC50 in data set [8] of 119 nM.
